{
  "source": "paper doi:10.1101/706168v1",
  "about": "(biorxiv, 2019)",
  "target": "TASK-1 (K2P3.1), wild type (Homo sapiens, UniProt O14649)",
  "sequence (O14649 whole entry)": "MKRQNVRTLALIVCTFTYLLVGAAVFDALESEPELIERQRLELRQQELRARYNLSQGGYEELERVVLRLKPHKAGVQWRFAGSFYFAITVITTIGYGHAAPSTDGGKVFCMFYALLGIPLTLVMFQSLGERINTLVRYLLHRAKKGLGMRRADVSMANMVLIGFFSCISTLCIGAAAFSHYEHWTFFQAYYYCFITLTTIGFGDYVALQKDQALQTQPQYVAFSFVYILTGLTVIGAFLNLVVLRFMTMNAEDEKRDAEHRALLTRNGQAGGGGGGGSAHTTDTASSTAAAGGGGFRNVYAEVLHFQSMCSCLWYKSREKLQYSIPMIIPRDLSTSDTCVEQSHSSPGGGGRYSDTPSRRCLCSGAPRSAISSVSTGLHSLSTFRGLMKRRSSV",
  "test": "two-electrode voltage clamp, Xenopus oocytes",
  "format": "cell-based",
  "note": "pEC50: −log10 of the molar value.",
  "data": [
    {"smiles": "O=C(c1cccc(OC(F)(F)F)n1)N1CCN(Cc2c(-c3ccc(Cl)cc3)nc3ccccn23)CC1", "note": "[BAY 2341237, (4-{[2-(4-chlorophenyl)imidazo[1,2-a]pyridin-3-yl]methyl}piperazin-1-yl)[6-(trifluoromethoxy)pyridin-2-yl]methanone]", "values": [
      {"measurement": "pEC50", "value": 8.12}
    ]}
  ]
}
